According to article PMC3671888 (Journal of medicinal chemistry, 2012):

Target: T1, recombinant human sGC (soluble guanylyl cyclase), α1 and β1 subunits (Homo sapiens, UniProt Q02108+Q02153)
T1 sequence (Q02108 1-690): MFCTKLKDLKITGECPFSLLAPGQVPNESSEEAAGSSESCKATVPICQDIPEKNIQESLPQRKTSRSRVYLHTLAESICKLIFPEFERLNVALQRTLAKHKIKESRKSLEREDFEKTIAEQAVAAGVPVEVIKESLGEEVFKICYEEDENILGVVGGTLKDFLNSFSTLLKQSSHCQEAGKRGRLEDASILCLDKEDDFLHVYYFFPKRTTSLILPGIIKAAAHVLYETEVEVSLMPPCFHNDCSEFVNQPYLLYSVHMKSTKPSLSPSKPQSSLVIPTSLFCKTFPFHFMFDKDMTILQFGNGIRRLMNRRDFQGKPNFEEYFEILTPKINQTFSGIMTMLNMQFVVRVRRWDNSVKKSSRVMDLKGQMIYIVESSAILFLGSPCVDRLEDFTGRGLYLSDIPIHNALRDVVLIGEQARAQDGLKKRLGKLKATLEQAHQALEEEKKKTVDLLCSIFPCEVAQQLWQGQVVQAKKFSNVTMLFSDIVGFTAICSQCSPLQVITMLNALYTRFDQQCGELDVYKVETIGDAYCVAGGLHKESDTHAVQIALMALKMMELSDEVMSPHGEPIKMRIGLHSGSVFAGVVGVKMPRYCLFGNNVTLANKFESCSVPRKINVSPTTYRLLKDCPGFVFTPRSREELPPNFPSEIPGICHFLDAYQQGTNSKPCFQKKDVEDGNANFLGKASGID
T1 sequence (Q02153 1-619): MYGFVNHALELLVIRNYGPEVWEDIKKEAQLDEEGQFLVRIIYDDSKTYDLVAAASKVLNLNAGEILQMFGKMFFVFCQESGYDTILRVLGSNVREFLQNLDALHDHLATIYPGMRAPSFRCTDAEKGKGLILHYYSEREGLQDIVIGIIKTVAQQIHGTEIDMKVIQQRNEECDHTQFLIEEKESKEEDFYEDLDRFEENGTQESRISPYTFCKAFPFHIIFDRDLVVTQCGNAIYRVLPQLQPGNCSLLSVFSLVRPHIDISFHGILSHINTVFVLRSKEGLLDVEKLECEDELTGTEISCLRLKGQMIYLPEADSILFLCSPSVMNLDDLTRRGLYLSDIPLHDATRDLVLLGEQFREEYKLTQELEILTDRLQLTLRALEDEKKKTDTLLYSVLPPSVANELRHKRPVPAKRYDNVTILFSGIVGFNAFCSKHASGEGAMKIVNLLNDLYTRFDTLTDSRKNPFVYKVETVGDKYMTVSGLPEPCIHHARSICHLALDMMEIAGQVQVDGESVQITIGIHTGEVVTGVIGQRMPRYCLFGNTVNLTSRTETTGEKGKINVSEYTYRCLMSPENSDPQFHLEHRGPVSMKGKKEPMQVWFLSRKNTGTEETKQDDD
Test: [alpha-32P]GTP to […]cGMP conversion assay
Assay type: biochemical
Settings: read-out: EC50 [μM] ^b; activation; preincubation with compound at 25 °C

C#N.C#N.C/C1=C2/NC([C@H](CC(N)=O)[C@@]2(C)CCC(=O)NCC(C)O)[C@]2(C)N=C(/C(C)=C3N=C(/C=C4N=C1[C@@H](CCC(N)=O)C\4(C)C)[C@@H](CCC(N)=O)[C@]\3(C)CC(N)=O)[C@@H](CCC(N)=O)[C@]2(C)CC(N)=O.[Co] (stereo partly shown) [compound 1, dicyanocobinamide]
EC50: 34.2 µM
